{"source": "paper PMC11784145", "about": "“Efficacy and in vitro pharmacological assessment of novel N-hydroxypyridinediones as hepatitis B virus ribonuclease H inhibitors” (Antimicrobial Agents and Chemotherapy, 2024)", "key": {"[1]": {"system": "HBV replication (HBV plus-polarity DNA strand)", "experiment": "HBV replication inhibition, strand preferential qPCR in hepDES19 cells", "format": "cell-based, hepatitis B virus", "settings": "for EC50: 72 h exposure", "protocol": "HBV replication inhibition was measured in hepDES19 cells following 72 h compound exposure without compound replenishment. EC50 values were determined by HBV plus-polarity strand suppression using a strand preferential qPCR assay, as described previously ([28]). Three or more replicate values were obtained on different days."}, "[2]": {"experiment": "Parallel artificial membrane permeability assay (PAMPA)", "format": "in vitro ADME", "protocol": "Compound Papp values were determined by normalizing the experimental compound absorbance to the compounds’ absorbances at equilibrium, membrane porosity, buffer volume, and time (s). Two or more replicate assays were obtained on separate days for each pH."}, "[3]": {"system": "MDCK-MDR1 cells", "experiment": "MDCK-MDR1 permeability assay", "format": "in vitro ADME", "settings": "10 µM compound, 2 h; for Efflux Ratio (Papp B-A/A-B): MDCK-MDR1 cells, actively effluxed if >2", "protocol": "MDCK-MDR1 cells were seeded on 96-well, high protein binding immobilon-P membrane plates (Millipore Sigma) at 2.4 × 10^4 cells per well for 4 days. Media were then decanted, and the cells were equilibrated with Hanks balanced salt solution (HBSS) supplemented with 10 mM CaCl2 and 1 mM MgCl2 for 1 h. Compound (10 µM) was then added to the apical side to assess active transport and to the basolateral side to assess active efflux. The cells were incubated with compound for 2 h with shaking at 37°C. Samples (50 µL) were retrieved from the recipient wells and mixed with 150 µL acetonitrile (ACN) and internal standard (1:1 of 200 ng/mL chloridazon:enalapril). Samples were pelleted at 4,000 × g and the supernatant was analyzed by liquid-chromatography/tandem mass spectrometry (LCMS/MS) analyses. […]. Active efflux was determined by Papp B/A/Papp A/B.\nTight junction formation was assessed by lucifer yellow permeation immediately following sample retrieval. Briefly, lucifer yellow (10 µM) was added to the apical wells and HBSS was added to the basolateral wells for 1 h with shaking at 37°C, after which sample was collected from the basolateral side and read on a Biotek Synergy HTX multi-mode plate reader with 485/20 excitation and 520/20 emission filters defined by the Center Wavelength/band-pass values. The percent lucifer yellow fluorescence was determined by subtracting the HBSS relative fluorescent units (RFU) from the sample RFU and normalizing to the lucifer yellow positive control RFU. Lucifer yellow permeation was determined to be acceptable if ≤3%."}, "[4]": {"molecular_target": "T1, human ribonuclease H1 (huRNase H1) (Homo sapiens, UniProt O60930)", "T1 construct": "made in house; host or cells: Escherichia coli", "T1 sequence (O60930 1-286)": "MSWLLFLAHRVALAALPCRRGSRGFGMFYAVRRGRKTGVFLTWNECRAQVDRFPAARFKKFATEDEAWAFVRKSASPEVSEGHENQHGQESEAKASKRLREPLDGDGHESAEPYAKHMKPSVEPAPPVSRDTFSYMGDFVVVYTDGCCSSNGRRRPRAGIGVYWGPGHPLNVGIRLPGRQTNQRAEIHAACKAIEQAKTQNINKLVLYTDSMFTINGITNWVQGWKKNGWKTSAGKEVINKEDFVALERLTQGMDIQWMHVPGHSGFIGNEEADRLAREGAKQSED", "experiment": "Human RNase H1 inhibition, fluorescent biochemical assay"}, "[5]": {"experiment": "Microsome stability", "format": "in vitro ADME, human", "settings": "human liver microsomes; for Clearance (intrinsic clearance, Clint) / Half-life: 1 µM compound, 30 min, NADPH"}, "[6]": {"system": "plasma proteins", "experiment": "Plasma protein binding, rapid equilibrium dialysis", "format": "in vitro ADME, bovine", "settings": "10 µM compound, DMEM-F12 with 10% FBS (0.25 mg/mL BSA), 4 h, 37°C", "protocol": "Plasma protein binding was performed using the Pierce rapid equilibrium dialysis device (Thermo Fisher) per the manufacturer’s instructions, as described ([27]). Briefly, the sample wells contained DMEM-F12 supplemented with 10% FBS spiked with 10 µM compound, and the buffer wells contained phosphate-buffered saline (PBS). The plate was incubated for 4 h at 37°C with shaking, after which 50 µL was retrieved from the buffer and sample wells and added to ice-cold acetonitrile and the internal standard described above. Samples were matrix-matched with PBS supplemented with 10% FBS or PBS alone, respectively, and centrifuged at 4,000 × g for 5 min to pellet plasma proteins. The supernatants were analyzed by LCMS/MS and percent compound bound was determined, as described previously ([27])."}, "[7]": {"system": "HepDES19 cells", "settings": "read-out: HepDES19 CC50; 72 h, MTS; highest concentration tested 100 µM; mean ± SD", "experimental": "HepDES19 cells were plated on 96-well tissue culture-treated plates (Greiner) at 1.0 × 10^4 cells per well and incubated for 48 h. Cells were treated with titrated concentrations of compound or 1% DMSO vehicle for 72 h, and cellular viability was measured by 3-(4,5-dimethylthiazol-2-yl)−5-(3-carboxymethoxyphenyl)−2-(4-sulfophenyl)−2H-tetrazolium (MTS) assays, as described previously ([20]). […] Three or more replicate assays were done on different days."}, "[8]": {"settings": "HBV plus-polarity strand suppression, highest concentration tested 100 µM, mean ± SD, read-out: HepDES19 EC50"}, "[9]": {"settings": "read-out: EC50 against HBV replication"}}, "note": "Read-outs that look alike come from different tables or passages of the source."}
{"smiles": "CC(=NOCc1ccc(F)c(F)c1)c1c(C)cc(=O)n(O)c1O", "note": "[Compound 1617]", "values": [{"measurement": "HepDES19 SI (CC50/EC50)", "setting": "[1]", "value": 157}, {"measurement": "EC50", "setting": "[1]; [8]", "value": "350 ± 193", "unit": "nM"}, {"measurement": "EC50", "setting": "[1]; [9]", "value": "< 400", "unit": "nM"}, {"measurement": "Avg Papp (PAMPA)", "setting": "[2]; FeSSIF pH 5", "value": 15.1, "unit": "×10⁻⁶ cm/s"}, {"measurement": "Interpretation (PAMPA Papp)", "setting": "[2]; FeSSIF pH 5", "value": "H (H: Papp > 1*10-6)"}, {"measurement": "Papp 1 (PAMPA)", "setting": "[2]; FeSSIF pH 5, replicate 1", "value": 4.04, "unit": "×10⁻⁶ cm/s"}, {"measurement": "Papp 2 (PAMPA)", "setting": "[2]; FeSSIF pH 5, replicate 2", "value": 26.1, "unit": "×10⁻⁶ cm/s"}, {"measurement": "Avg Papp (PAMPA)", "setting": "[2]; pH 7.4", "value": 0.95, "unit": "×10⁻⁶ cm/s"}, {"measurement": "PAMPA apparent permeability (Papp) category", "setting": "[2]; pH 7.4", "value": "low (low (<1 × 10^−6 cm/s))"}, {"measurement": "Papp 1 (PAMPA)", "setting": "[2]; pH 7.4, replicate 1", "value": 1.46, "unit": "×10⁻⁶ cm/s"}, {"measurement": "Papp 2 (PAMPA)", "setting": "[2]; pH 7.4, replicate 2", "value": 0.478, "unit": "×10⁻⁶ cm/s"}, {"measurement": "Papp 3 (PAMPA)", "setting": "[2]; pH 7.4, replicate 3", "value": 0.911, "unit": "×10⁻⁶ cm/s"}, {"measurement": "MDCK-MDR1 Papp category, apical to basolateral (A-B)", "setting": "[3]", "value": "low (low (<1*10^−6 cm/s))"}, {"measurement": "MDCK-MDR1 Papp category, basolateral to apical (B-A)", "setting": "[3]", "value": "low (low (<1*10^−6 cm/s))"}, {"measurement": "Efflux Ratio (Papp B-A/A-B)", "setting": "[3]", "value": 1.01}, {"measurement": "Selectivity of HBV replication inhibition over huRNase H1 (huRNase H1 IC50 versus HBV EC50)", "setting": "[4]", "value": "at least 10 fold"}, {"measurement": "Intrinsic clearance (Clint) rate category", "setting": "[5]", "value": "medium (medium Clint rates (≥ 8.6 and ≤47))"}, {"measurement": "Clearance (intrinsic clearance, Clint)", "setting": "[5]", "value": 45.7, "unit": "µL/min/mg"}, {"measurement": "Half-life", "setting": "[5]", "value": 23.0, "unit": "min"}, {"measurement": "Percent bound", "setting": "[6]", "value": "100 ± 0.019", "unit": "%"}, {"measurement": "CC50", "setting": "[7]", "value": "72900 ± 37100", "unit": "nM"}]}
{"smiles": "CC(=NOCc1cccc(F)c1)c1c(C)cc(=O)n(O)c1O", "note": "[Compound 1618]", "values": [{"measurement": "HepDES19 SI (CC50/EC50)", "setting": "[1]", "value": "1,071"}, {"measurement": "EC50", "setting": "[1]; [8]", "value": "61 ± 10", "unit": "nM"}, {"measurement": "EC50", "setting": "[1]; [9]", "value": "< 400", "unit": "nM"}, {"measurement": "Avg Papp (PAMPA)", "setting": "[2]; FeSSIF pH 5", "value": 16.4, "unit": "×10⁻⁶ cm/s"}, {"measurement": "Interpretation (PAMPA Papp)", "setting": "[2]; FeSSIF pH 5", "value": "H (H: Papp > 1*10-6)"}, {"measurement": "Papp 1 (PAMPA)", "setting": "[2]; FeSSIF pH 5, replicate 1", "value": 15.4, "unit": "×10⁻⁶ cm/s"}, {"measurement": "Papp 2 (PAMPA)", "setting": "[2]; FeSSIF pH 5, replicate 2", "value": 17.4, "unit": "×10⁻⁶ cm/s"}, {"measurement": "Avg Papp (PAMPA)", "setting": "[2]; pH 7.4", "value": 0.489, "unit": "×10⁻⁶ cm/s"}, {"measurement": "PAMPA apparent permeability (Papp) category", "setting": "[2]; pH 7.4", "value": "low (low (<1 × 10^−6 cm/s))"}, {"measurement": "Papp 1 (PAMPA)", "setting": "[2]; pH 7.4, replicate 1", "value": 0.395, "unit": "×10⁻⁶ cm/s"}, {"measurement": "Papp 2 (PAMPA)", "setting": "[2]; pH 7.4, replicate 2", "value": 0.582, "unit": "×10⁻⁶ cm/s"}, {"measurement": "MDCK-MDR1 Papp category, apical to basolateral (A-B)", "setting": "[3]", "value": "low (low (<1*10^−6 cm/s))"}, {"measurement": "MDCK-MDR1 Papp category, basolateral to apical (B-A)", "setting": "[3]", "value": "low (low (<1*10^−6 cm/s))"}, {"measurement": "Efflux Ratio (Papp B-A/A-B)", "setting": "[3]", "value": 0.84}, {"measurement": "Selectivity of HBV replication inhibition over huRNase H1 (huRNase H1 IC50 versus HBV EC50)", "setting": "[4]", "value": "at least 10 fold"}, {"measurement": "Intrinsic clearance (Clint) rate category", "setting": "[5]", "value": "low (low Clint (µL/min/mg protein) rates (<8.6))"}, {"measurement": "Clearance (intrinsic clearance, Clint)", "setting": "[5]", "value": 5.71, "unit": "µL/min/mg"}, {"measurement": "Half-life", "setting": "[5]", "value": ">30", "unit": "min"}, {"measurement": "Percent bound", "setting": "[6]", "value": "93.5 ± 0.129", "unit": "%"}, {"measurement": "CC50", "setting": "[7]", "value": "73900 ± 28600", "unit": "nM"}]}
